The values that follow come from patent US20170058314A1, “NOVEL METHODOLOGY FOR IDENTIFYING ANTI-PERSISTER ACTIVITY AND ANTIMICROBIAL SUSCEPTIBILITY FOR BORRELIA BURGDORFERI AND OTHER BACTERIA” (priority 2014, published 2017).

Data set [1] has as its system stationary phase B. burgdorferi persisters (strain B31). Put plainly: SYBR Green I/PI viability assay (plate reader), FDA-approved drug library screen. The following applies: for Ratio of Green/Red fluorescence, Primary screening / Ratio of Green/Red fluorescence, Rescreening (first column) / Ratio of Green/Red fluorescence, Rescreening (second column): 7 days, stationary phase; for viability at 50 µM: Borreliella burgdorferi, 168 h, read-out: Residual viable cells (regression equation, SYBR Green I/PI assay).

Data set [2] has the same test system. Put plainly: epifluorescence microscope counting after SYBR Green I/PI staining, FDA drug screen. The conditions noted are these: for viability at 50 µM: Borreliella burgdorferi, 168 h, read-out: Residual viable cells (epifluorescence microscope counting).
Data set [3] has as its system B. burgdorferi (growing, strain B31). Put plainly: MIC determination, standard microdilution method. Type of data set: cell-based, Borrelia burgdorferi. The conditions noted are these: MIC test.
In data set [4] the test system is log phase and stationary phase B. burgdorferi culture. The experiment in a line: Antibiotic exposure assay, SYBR Green I/PI (drugs alone and combinations). The conditions noted are these: Borreliella burgdorferi, 168 h. On the procedure:
To qualitatively determine the effect of antibiotics, 10 μL of each compound from the pre-diluted plate or pre-diluted stock was added to stationary phase B. burgdorferi culture in the 96-well plate. The final volume per well was adjusted to 100 μL at a concentration of 10 μg/mL for each antibiotic. Plates were sealed and placed in a 33° C. incubator for 7 days. The SYBR Green I/PI viability assay was used to assess the live and dead cells after antibiotic exposure as described (Feng, Wang, Shi, et al., 2014). Briefly, 10 μL of SYBR Green I (10,000×stock, Invitrogen) was mixed with 30 μL propidium iodide (PI, 20 mM) into 1.0 mL of sterile dH2O. Then, 10 μL of staining mixture was added to each well and mixed thoroughly. The plates were incubated at room temperature in the dark for 15 minutes followed by plate reading at excitation wavelength at 485 nm and the fluorescence intensity at 535 nm (green emission) and 635 nm (red emission) in microplate reader (HTS 7000 plus Bio Assay Reader, PerkinElmer Inc., USA). With least-square fitting analysis, the regression equation and regression curve of the relationship between percentage of live bacteria and green/red fluorescence ratios was obtained. The regression equation was used to calculate the percentage of live cells in each well of the 96-well plate.
To qualitatively determine the effect of antibiotics, 10 μL of each compound (final concentration 50 μM) from the pre-diluted plate or pre-diluted stock was added to round body form or stationary phase B. burgdorferi culture in the 96-well plate. The final volume per well was adjusted to 100 μL. Plates were sealed and placed in a 33° C. incubator for 7 days. The SYBR Green I/PI viability assay was used to assess the live and dead cells after antibiotic exposure as described (Feng, Wang, Shi, et al., 2014). Briefly, 10 μL of SYBR Green I (10,000×stock, Invitrogen) was mixed with 30 μL propidium iodide (PI, 20 mM, Sigma-Aldrich) into 1.0 mL of sterile dH2O. Then, 10 μL staining mixture was added to each well and mixed thoroughly. The plates were incubated at room temperature in the dark for 15 minutes followed by plate reading at excitation wavelength at 485 nm and the fluorescence intensity at 535 nm (green emission) and 635 nm (red emission) in microplate reader (HTS 7000 plus Bio Assay Reader, PerkinElmer Inc., USA). With least-square fitting analysis, the regression equation and regression curve of the relationship between percentage of live and dead bacteria as shown in green/red fluorescence ratios was obtained. The regression equation was used to calculate the percentage of live cells in each well of the 96-well plate.
Round body form and ten day old stationary phase (in brackets) B. burgdorferi culture was treated with 10 μg/mL drugs or their combinations for 7 days. Residual viable B. burgdorferi was calculated according to the regression equation and ratio of Green/Red fluorescence obtained by SYBR Green I/PI assay as described (Feng, Wang, Shi, et al., 2014). Direct microscopy counting was employed to rectify the results of the SYBR Green I/PI assay. […] Abbreviation: Dox, doxcycline; CefP, cefoperazone; DAP, daptomycin; CefM, cefmetazole; Scp, sulfachlorpyridazine; Art, artemisinin; Nft, nitrofurantoin.

Data set [5] deals with round body form of B. burgdorferi. Put plainly: SYBR Green I/PI assay on amoxicillin-induced round body form.
Data set [6] deals with E. coli strains (W3110, UTI89, CFT073, KTE181). Put plainly: Rapid SYBR Green/PI antibiotic susceptibility test. Type of data set: cell-based, Escherichia coli. The following applies: for percent killed, sensitive strain W3110: ampicillin 100 μg/mL, others 25 μg/mL; for percent killed, resistant strain KTE181: ampicillin 100, trimethoprim 25, streptomycin 25 μg/mL; for cut-off (averaged proportion of killed cells) for resistant strains / cut-off (averaged proportion of killed cells) for susceptible strains: ampicillin, trimethoprim 5 μg/mL.

Setting [7] is: 50 μM, 7-day old stationary phase cells treated for 7 days.
The mark [8] stands for this setting: read-out: Live Cell % (residual viable B. burgdorferi).

Read-outs that look alike come from different tables or passages of the source.

Regarding `CN(C)CCn1nnnc1SCC1=C(C(=O)O)N2C(=O)[C@@H](NC(=O)Cc3csc(N)n3)[C@H]2SC1` [Cefotiam], in data set [1] (50 μM), the “Ratio of Green/Red fluorescence, Primary screening” value came out at 6.41; the “Ratio of Green/Red fluorescence, Rescreening (first column)” value amounted to 7.55; the “Ratio of Green/Red fluorescence, Rescreening (second column)” value amounted to 6.21. In addition, the viability at 50 µM in data set [1] was determined as 43%. The viability at 50 µM in data set [2] was determined as 42%. Moreover, the “sensitivity of log phase / multiplying B. burgdorferi (words, FIG. 12)” value in data set [3] is given as “very sensitive”.

In the case of `CC[C@H]1OC(=O)[C@H](C)[C@@H](O[C@H]2C[C@@](C)(OC)[C@@H](O)[C@H](C)O2)[C@H](C)[C@@H](O[C@@H]2O[C@H](C)C[C@H](N(C)C)[C@H]2O)[C@](C)(OC)C[C@@H](C)C(=O)[C@H](C)[C@@H](O)[C@]1(C)O` [Clarithromycin], in data set [1] (50 μM), the “Ratio of Green/Red fluorescence, Primary screening” value is 7.70; the “Ratio of Green/Red fluorescence, Rescreening (first column)” value is recorded as 7.36; the “Ratio of Green/Red fluorescence, Rescreening (second column)” value amounted to 7.59. Besides, the viability at 50 µM in data set [1] came out at 65%. For the same molecule, the viability at 50 µM in data set [2] was found to be 70%. In data set [4] (read-out: Live Cell % (residual viable B. burgdorferi), ten-day-old stationary phase culture enriched with micro-colonies, 10 μg/mL each drug, 7 days), the viability at 10 µg/mL worked out at 63%.

Regarding `CC1(C)S[C@@H]2[C@H](NC(=O)Cc3ccccc3)C(=O)N2[C@H]1C(=O)O` [Penicillin G], the “Residual viable cells (regression equation, SYBR Green I/PI assay)” value in data set [1] (setting [7]) was determined as 68%. Besides, in data set [1] (50 μM), the “Ratio of Green/Red fluorescence, Primary screening” value was 7.41; the “Ratio of Green/Red fluorescence, Rescreening (first column)” value came out at 7.68; the “Ratio of Green/Red fluorescence, Rescreening (second column)” value is 7.92. In addition, the “Residual viable cells (epifluorescence microscope counting)” value in data set [2] (setting [7]) is listed as 75%. For the same molecule, in data set [5] (round body form, 50 μM, 7 days), the “Ratios of green/red fluorescence, Primary screening” value is recorded as 6.33; the “Ratios of green/red fluorescence, Rescreening (first column)” value was 6.51; the “Ratios of green/red fluorescence, Rescreening (second column)” value was determined as 6.33; the “Residual viable cells (SYBR Green I/PI assay)” value is listed as 38%.

In the case of `[H]/N=C(/N)N[C@H]1[C@H](O)[C@@H](O)[C@H](O[C@@H]2O[C@@H](C)[C@](O)(C=O)[C@H]2O[C@@H]2O[C@@H](CO)[C@H](O)[C@@H](O)[C@@H]2NC)[C@@H](N/C(N)=N\[H])[C@@H]1O` [Streptomycin], in data set [1] (50 μM), the “Ratio of Green/Red fluorescence, Primary screening” value came to 6.72; the “Ratio of Green/Red fluorescence, Rescreening (first column)” value amounted to 6.93; the “Ratio of Green/Red fluorescence, Rescreening (second column)” value was 6.76. Further, in data set [1], the viability at 50 µM came out at 45%. Further, in data set [6] (30 minutes), the “percent killed, sensitive strain W3110” value is 29% and the “percent killed, resistant strain KTE181” value came to 0%. In data set [6] (streptomycin 100 μg/mL), the “cut-off (averaged proportion of killed cells) for resistant strains” value is reported as −0.1, the “cut-off (averaged proportion of killed cells) for susceptible strains” value is reported as −0.6 and the “cut-off (averaged proportion of killed cells) for intermediate resistance” value was −0.5.

Regarding `CN(C)c1cc(NC(=O)CNC(C)(C)C)c(O)c2c1C[C@H]1C[C@H]3[C@H](N(C)C)C(O)=C(C(N)=O)C(=O)[C@@]3(O)C(O)=C1C2=O` [Tigecycline], in data set [1] (50 μM), the “Ratio of Green/Red fluorescence, Primary screening” value came to 6.98; the “Ratio of Green/Red fluorescence, Rescreening (first column)” value is 7.06; the “Ratio of Green/Red fluorescence, Rescreening (second column)” value is given as 6.96. Further, the viability at 50 µM in data set [1] turned out to be 51%. In addition, the viability at 50 µM in data set [2] turned out to be 58%. Besides, the viability at 10 µg/mL in data set [4] (setting [8]) was found to be 67%.

In the case of `CN[C@H](CC(C)C)C(=O)N[C@H]1C(=O)N[C@@H](CC(N)=O)C(=O)N[C@H]2C(=O)N[C@H]3C(=O)N[C@H](C(=O)N[C@H](C(=O)O)c4cc(O)cc(O)c4-c4cc3ccc4O)[C@H](O)c3ccc(c(Cl)c3)Oc3cc2cc(c3O[C@@H]2O[C@H](CO)[C@@H](O)[C@H](O)[C@H]2O[C@H]2C[C@](C)(N)[C@H](O)[C@H](C)O2)Oc2ccc(cc2Cl)[C@H]1O` [Vancomycin], the “Ratio of Green/Red fluorescence, Primary screening” value in data set [1] (50 μM) stood at 6.65. In addition, the “Ratio of Green/Red fluorescence, Rescreening (first column)” value in data set [1] (50 μM) is reported as 6.58. In addition, in data set [1] (50 μM), the “Ratio of Green/Red fluorescence, Rescreening (second column)” value amounted to 6.37. Further, the viability at 50 µM in data set [1] stood at 38%; in data set [2], 48%; in data set [5] (Borreliella burgdorferi, 168 h, read-out: Residual viable cells (SYBR Green I/PI assay)), 38%. For the same molecule, the viability at 10 µg/mL in data set [4] (setting [8]) turned out to be 64%.

In the case of `COc1cc(Cc2cnc(N)nc2N)cc(OC)c1OC` [trimethoprim], in data set [6] (30 minutes), the “percent killed, sensitive strain W3110” value is on record as 47% and the “percent killed, resistant strain KTE181” value came to 1%. In addition, in data set [6] (30 minutes, trimethoprim 25 μg/mL), the “percent killed, resistant strain CFT073” value was found to be 22%. In data set [6] (streptomycin 100 μg/mL), the “cut-off (averaged proportion of killed cells) for resistant strains” value is -0.2 and the “cut-off (averaged proportion of killed cells) for susceptible strains” value is reported as −0.5.
